Earlier results in patent US9943479B2, “Injectable liquid paracetamol formulation” (GENFARMA LABORATORIO S.L., priority 2006, dated 2018).
Values after ≈ are worked out from the molar mass of the structure shown. Read-outs that look alike come from different tables or passages of the source.

solubility in aqueous medium (4° C.): ~8 mg/mL (≈ 52.9 mM) | solubility in aqueous medium (20° C.): ~12 mg/mL (≈ 79.4 mM)
SMILES: CC(=O)Nc1ccc(O)cc1 [paracetamol, n-acetyl-4-aminophenol]
